We go through two compounds from patent US11723894B2, “Combination product for the treatment of neurological and/or psychiatric disorders” (Consejo Superior de Investigaciones Cientificas (CSIC), priority 2017, dated 2023).

SMILES strings stand for the structures.

For orientation: Ki means a dissociation constant, usually derived from enzyme kinetics or from competition with a known ligand.

One assay concerns the target 5HT2A (Homo sapiens, UniProt P28223). As to conditions: 5HT2A Antagonist; cited from earlier work.
In another assay the target is D2 (Homo sapiens, UniProt P14416). As to conditions: D2 Antag; cited from earlier work.
Sequence of D2 (P14416 whole entry): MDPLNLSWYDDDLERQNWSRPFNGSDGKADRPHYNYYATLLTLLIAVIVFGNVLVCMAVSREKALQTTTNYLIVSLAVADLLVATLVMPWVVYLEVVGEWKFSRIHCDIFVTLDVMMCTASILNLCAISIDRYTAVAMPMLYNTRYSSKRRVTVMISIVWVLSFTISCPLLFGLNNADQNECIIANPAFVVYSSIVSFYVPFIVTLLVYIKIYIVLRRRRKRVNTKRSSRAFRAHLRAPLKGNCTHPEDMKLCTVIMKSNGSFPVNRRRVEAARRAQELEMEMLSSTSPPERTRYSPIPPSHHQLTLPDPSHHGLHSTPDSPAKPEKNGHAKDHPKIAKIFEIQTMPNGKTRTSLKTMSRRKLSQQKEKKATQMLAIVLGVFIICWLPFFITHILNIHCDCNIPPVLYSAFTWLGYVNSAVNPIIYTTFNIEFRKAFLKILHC
Assay [1] deals with subgranular zone of the hippocampus. Put plainly: Long-term (21 days) in vivo neurogenesis in the subgranular zone of the hippocampus (BrdU/NeuN, BrdU/DCX). Also noted: species or system C57BL/6 mice. To be noted: antagonist 0.2 μg/animal with DMT 0.1 μg/animal, every other day for 3 weeks. The procedure:
Adult male C57BL/6 mice (obtained from Charles River Labs, Barcelona, Spain) were injected every other day for 3 weeks with DMT (0.1 μg/animal), alone or in combination with the selective Sigma-1 BD1063 antagonist (BD, 0.2 μg/animal, Sigma, Catalog number SML0276), the mixed 5-HT2A/1A receptor antagonist methiothepin (Met, 0.2 μg/animal, Sigma, Catalog number M149), or the selective 5-HT1A receptor antagonist WAY100635 (WAY, 0.2 μg/animal, ABCAM catalog number ab120550). On day 1 of treatment, animals were intraperitoneally injected with the proliferation marker 5-bromo-2-deoxyuridine (BrdU, 50 mg/kg, Sigma, Catalog number B5002) and sacrificed on day 21. Following anesthesia, the animals were perfused transcardially with 4% paraformaldehyde, and the brains obtained and post-fixed in the same solution at 4-8° C. overnight. They were subsequently cryoprotected, frozen, and finally cut into 30 μm coronal sections in a cryostat. Free-floating sections were immunostained using immunofluorescence analysis. For BrdU detection, samples were first incubated with 2 M HCl for 30 minutes at 37° C. before blocking 1 hour in PBS containing 5% normal serum, 0.1 M lysine, and 0.1% Triton X-100. Sections were then incubated with anti-BrdU mouse monoclonal antibody (DAKO, Barcelona, Spain, Catalog number M0744) combined with a neuronal marker, anti-neuN rabbit antibody (Abcam, Cambridge, UK. Catalog number ABN78) or an anti-double courtin (DCX) goat antibody (Santa Cruz Biotech. USA) at 4° C. overnight, washed three times and incubated with Alexa Fluor-488 goat anti-mouse and Alexa 647-goat anti-rabbit or -horse anti-goat secondary antibodies (Molecular Probes, Madrid, Spain), respectively, for 1 hour at room temperature. After rinses, sections were mounted with Vectashield.

Assay [2] has as its system hippocampal subgranular neurogenic niche. Description: Short-term (4 days) in vivo activation of the hippocampal subgranular neurogenic niche (BrdU). Set-up: species or system C57BL/6 mice. To be noted: antagonist 0.2 μg/animal with DMT 0.1 μg/animal. The protocol:
Adult male C57BL/6 mice (obtained from Charles River Labs) were injected in the lateral ventricle (coordinates: from bregma, posterior −1 mm, lateral +1.3 mm, ventral +2 mm, according to the atlas of Paxinos and Franklin (Paxinos G, Franklin KBJ. The Mouse Brain in Stereotaxic Coordinates. 4. San Diego: Academic Press; 2012)), using a stereotaxic apparatus (Kopf Instruments, CA) with DMT (0.1 μg/animal), alone or in combination with the selective Sigma-1 BD1063 (BD, 0.2 μg/animal, Sigma, catalog number SML0276), the mixed 5-HT2A/1A receptor antagonist methiothepin (Met, 0.2 μg/animal, Sigma catalog number M149), or the selective 5-HT1A receptor antagonist WAY100635 (WAY, 0.2 μg/animal, ABCAM catalog number ab120550). Prior to the injection, mice were anesthetized by intraperitoneal injection of ketamine (60 mg/kg) and medetomidine (0.125 mg/kg). […] The boundaries of these nervous system regions were determined with reference to internal anatomic landmarks (Paxinos G, Franklin KBJ. The Mouse Brain in Stereotaxic Coordinates. 4. San Diego: Academic Press; 2012). For DG area selection, images were analyzed using computer-assisted image analysis software (Soft Imaging System Corporation, Lakewood, Colo., http://www.soft-imaging.com). Positive cells, which intersected the uppermost focal plane (exclusion plane) and the lateral exclusion boundaries of the counting frames, were not counted. […]

Sequence of 5HT2A (P28223 whole entry): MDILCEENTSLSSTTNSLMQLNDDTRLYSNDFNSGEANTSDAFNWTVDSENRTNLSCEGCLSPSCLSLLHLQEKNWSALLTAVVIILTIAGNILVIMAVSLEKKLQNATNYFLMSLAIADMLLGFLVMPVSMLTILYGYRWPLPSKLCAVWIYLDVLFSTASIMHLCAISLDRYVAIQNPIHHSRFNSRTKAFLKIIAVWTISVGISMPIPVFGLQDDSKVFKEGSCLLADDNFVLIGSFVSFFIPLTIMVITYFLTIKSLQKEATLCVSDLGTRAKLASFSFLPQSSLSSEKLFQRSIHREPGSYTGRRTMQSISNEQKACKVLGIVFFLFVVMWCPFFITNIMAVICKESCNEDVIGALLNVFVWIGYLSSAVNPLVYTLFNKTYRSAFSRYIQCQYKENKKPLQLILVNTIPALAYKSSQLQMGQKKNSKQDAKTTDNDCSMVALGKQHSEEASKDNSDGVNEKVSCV

Turning to `CCNC(=O)N1CCN(CCCC(c2ccc(F)cc2)c2ccc(F)cc2)CC1` [Amperozide], the Ki on 5HT2A was 12 nM; at D2, 140 nM.
For the compound `CN1CCN(CCc2ccc(Cl)c(Cl)c2)CC1` [BD1063], the “blockade of the DMT neurogenic effect in vivo” value in assay [1] was “blocked”. In addition, the “blockade of DMT stimulatory effects in vivo” value in assay [2] is “completely blocked”.
